Data as given in US10653688B2, “6-(6-membered heteroaryl and aryl)isoquinolin-3-yl carboxamides and preparation and use thereof” (Samumed, LLC, priority 2017, dated 2020).
Where two headings read alike, the source gives them in different places.

Key:
[1] = test system: Wnt activity (SW480 colon carcinoma cells stably expressing the Sp5-Luc reporter gene); assay: Wnt activity screening assay (Sp5-Luc reporter gene assay); assay type: cell-based, human; settings: Homo sapiens, 36 to 48 hours
Excerpt: The screening assay for Wnt activity is described as follows. Reporter cell lines can be generated by stably transducing cancer cell lines (e.g., colon cancer) or primary cells (e.g., IEC-6 intestinal cells) with a lentiviral construct that includes a Wnt-responsive promoter driving expression of the firefly luciferase gene.
SW480 colon carcinoma cells were transduced with a lentiviral vector expressing luciferase with a human Sp5 promoter consisting of a sequence of eight TCF/LEF binding sites. SW480 cells stably expressing the Sp5-Luc reporter gene and a hygromycin resistance gene were selected by treatment with 150 μg/mL of hygromycin for 7 days. These stably transduced SW480 cells were expanded in cell culture and used for all further screening activities. […] For Sp5-Luc reporter gene assays, the cells were plated at 4,000 cells/well in 384-well plates with a DMEM medium containing 1% fetal bovine serum, and 1% Penicillin-Streptomycin and incubated for 36 to 48 hours at 37° C. and 5% CO2. Following incubation, 15 μl of BriteLite Plus luminescence reagent (Perkin Elmer) was added to each well of the 384-well assay plates. The plates were placed on an orbital shaker for 2 min and then luminescence was quantified using the Envision (Perkin Elmer) plate reader. Readings were normalized to DMSO only treated cells, and normalized activities were utilized for EC50 calculations using the dose-response log (inhibitor) vs. response-variable slope (four parameters) nonlinear regression feature available in GraphPad Prism 5.0 (or Dotmatics).

[2] = biological target: recombinant DYRK1A kinase (Homo sapiens (Human), UniProt Q13627); assay: DYRK1A kinase assay (Ser/Thr 18 peptide Z-lyte, FRET)
[3] = test system: LL29 cells (primary human fibroblasts derived from IPF patients), α-smooth muscle actin; assay: Inhibition of fibrotic process: TGF-β1-treated primary human fibroblasts, αSMA staining; assay type: cell-based; settings: Homo sapiens, Fibroblast; for EC50: 96 h, TGF-β1 20 ng/mL, 4 days, % cells positive for αSMA;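 for all read-outs here: controls were TGF-β1-stimulated wells with DMSO vehicle as the positive reference and cells given DMSO alone as the negative reference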
[4] = test system: IL-6 in human peripheral blood mononuclear cells (huPBMCs); assay: IL-6 inhibition in LPS-stimulated human peripheral blood mononuclear cells (HTRF); assay type: cell-based; settings: Homo sapiens, PBMC; for EC50: LPS 50 ng/mL, 22 hours, IL-6 HTRF
Description: Human Peripheral Blood Mononuclear Cells:
Fresh Normal PB MNC (Catalog # PB001, AllCells, Alameda, Calif.) were shipped overnight at 4° C. and resuspended in Roswell Park Memorial Institute (RPMI) 1640 Medium, with GlutaMAX Supplement (Catalog #61870127, ThermoFisher Scientific, Waltham, Mass.) supplemented with 1% Penicillin-Streptomycin (Catalog #15140163, ThermoFisher Scientific, Waltham, Mass.) and 1% fetal bovine serum (FBS) (Catalog #16140089, ThermoFisher Scientific, Waltham, Mass.) assay media.
Fresh normal human peripheral blood mononuclear cells (huPBMCs) were resuspended in 1% FBS-RPMI assay media with 1% Penicillin-Streptomycin 1% to a cell concentration of 1×10e6 cells/mL. […] 50 ng/mL of Lipopolysaccharides from Escherichia coli 0111:B4 (Catalog # L5293-2ML, Sigma-Aldrich, St. Louis, Mo.) was added after 2 hours and cells were incubated for another 22 hours at 37° C.-5% CO2. After 22 hour incubation, a mixture of anti-IL6 XL665 and anti-IL-6 Cryptate diluted in reconstitution buffer (Catalog #62IL6PEC, Cisbio Inc., Bedford, Mass.) was added to each well. Following incubation for 3 hours at room temperature, Homogeneous Time-Resolved Fluorescence (HTRF) was measured using the Envision (Perkin Elmer, Shelton, Conn.) at 665 nm and […]. The ratio of fluorescence at 665 nm to 620 nm was used as a readout for IL-6 quantification. All samples were processed in duplicate. Readings were normalized to DMSO treated cells and normalized activities were utilized for EC50 calculations. EC50 was determined using software generated by Dotmatics Limited (Windhill Bishops Stortford Herts, UK) using the Levenberg-Marquardt 4 parameter fitting procedure with finite different gradients.

recombinant GSK3β kinase = recombinant GSK3β kinase (Homo sapiens (Human), UniProt P49841); assay: GSK3β kinase assay (Ser/Thr 09 peptide Z-lyte, FRET); assay type: biochemical;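 note: FRET read-out as coumarin over fluorescein emission ratio, compounds incubated one hour at room temperature, IC50 from dose-response curve fit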
Chain of recombinant GSK3β kinase (P49841 whole entry): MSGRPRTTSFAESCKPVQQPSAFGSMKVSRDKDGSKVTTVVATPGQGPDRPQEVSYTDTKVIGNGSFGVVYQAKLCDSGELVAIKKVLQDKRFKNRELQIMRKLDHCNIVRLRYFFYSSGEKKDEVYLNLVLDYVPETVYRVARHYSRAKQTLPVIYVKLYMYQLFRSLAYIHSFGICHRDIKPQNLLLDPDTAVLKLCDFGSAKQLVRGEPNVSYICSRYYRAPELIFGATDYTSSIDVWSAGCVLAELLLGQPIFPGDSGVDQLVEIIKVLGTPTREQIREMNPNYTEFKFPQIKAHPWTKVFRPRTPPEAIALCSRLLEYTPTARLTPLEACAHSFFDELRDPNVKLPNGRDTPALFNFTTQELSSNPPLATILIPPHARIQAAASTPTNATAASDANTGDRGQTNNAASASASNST
Description: Each compound is dissolved in DMSO as a 10 mM stock and used to prepare compound source plates. Serial dilution (1:3, 11-point dose-response curves from 10 M to 0.0003 M) and compound transfer was performed using the ECHO 550 (Labcyte, Sunnyvale, Calif.) into 1536-well black-walled round bottom plates (Corning).
This is a non-radioactive assay using fluorescence resonance energy transfer (FRET) between coumarin and fluorescein to detect kinase activity which is represented as ratio of coumarin emission/fluorescein emission.
The mixture is allowed to incubate with the representative compounds for one hour at room temperature. All reactions were performed in duplicate. Unphosphorylated (“0% Control”) and phosphorylated (“100% control”) forms of Ser/Thr 18 serve as control reactions.
After incubation, diluted Development Buffer is added to the reaction and allowed to further incubate for one hour at room temperature.
Dose-response curves are generated and inhibitory concentration (IC50) values are calculated using non-linear regression curve fit in the Dotmatics' Studies Software (Bishops Stortford, UK).

[5] = test system: SW480 colon carcinoma cells; assay: Cell viability assay (CellTiter-Glo); assay type: cell-based, human; settings: Homo sapiens, 96 h, four days, CellTiter-Glo
Description: SW480 colon carcinoma cells were transduced with a lentiviral vector expressing luciferase with a human Sp5 promoter consisting of a sequence of eight TCF/LEF binding sites. SW480 cells stably expressing the Sp5-Luc reporter gene and a hygromycin resistance gene were selected by treatment with 150 μg/mL of hygromycin for 7 days. These stably transduced SW480 cells were expanded in cell culture and used for all further screening activities.
For the Cell Viability Assays, the cells were plated at 2,000 cells/well in 384-well plates with a DMEM medium containing 1% fetal bovine serum, and 1% Penicillin-Streptomycin and incubated for […] at 37° C. and 5% CO2. Eight replicates of DMSO-treated cells served as controls and cells treated with compound were performed in duplicate.
After incubation, 10 μL of CellTiter-Glo (Promega) was added to each well allowed to incubate for approximately 12 minutes. This reagent “results in cell lysis and generation of a luminescent signal proportional to the amount of ATP present. The amount of ATP is directly proportional to the number of cells present in culture, in agreement with previous reports. The CellTiter-Glo Assay generates a “glow-type” luminescent signal, produced by the luciferase reaction (Promega.com)”.

[6] = DYRK1A kinase, head says EC50, method says IC50, ATP 30 μM
[7] = GSK3β kinase, head says EC50, method says IC50, ATP 46 μM

Row | SMILES | EC50 [1] [nM] | EC50 [2, 6] [nM] | EC50 [4] [nM] | EC50 (recombinant GSK3β kinase; [7]) [nM] | EC50 [5] [nM] | EC50 [2] [nM] | EC50 (recombinant GSK3β kinase) [nM] | EC50 [3] [nM] | inhibition at 10 µM ([3]; read-out: percent inhibition at 10 μM (given for EC50 >10 μM), TGF-β1, αSMA, 10 μM) [%] | inhibition at 10 µM ([4]; read-out: percent inhibition at 10 μM (given for EC50 >10 μM), LPS, IL-6, 10 μM) [%]
1 | CN1CCN(c2cc(C(=O)Nc3cc4cc(-c5cnccn5)ccc4cn3)ccn2)CC1 [Compound 84, 2-(4-Methylpiperazin-1-yl)-N-(6-(pyrazin-2-yl)isoquinolin-3-yl)isonicotinamide] | 5830 | 96 | > 10000 | > 10000 | 8380 | – | – | > 10000 | 35.4 | 5.7
2 | CNc1cncc(-c2ccc3cnc(NC(=O)c4ccnc(N5CCN(C)CC5)c4)cc3c2)n1 [Compound 85, N-(6-(6-(Methylamino)pyrazin-2-yl)isoquinolin-3-yl)-2-(4-methylpiperazin-1-yl)isonicotinamide] | 757 | 2 | 6710 | > 10000 | 2460 | – | – | 1850 | – | –
3 | CC(C)Nc1cncc(-c2ccc3cnc(NC(=O)C4CNC4)cc3c2)n1 [Compound 86, N-(6-(6-(Isopropylamino)pyrazin-2-yl)isoquinolin-3-yl)azetidine-3-carboxamide] | 1620 | – | 1130 | – | 3420 | 1 | 17 | 204 | – | –
4 | CC(C)Nc1cncc(-c2ccc3cnc(NC(=O)C4CCNCC4)cc3c2)n1 [Compound 87, N-(6-(6-(Isopropylamino)pyrazin-2-yl)isoquinolin-3-yl)piperidine-4-carboxamide] | 201 | 1 | 377 | 38 | 758 | – | – | 1920 | – | –
5 | CC(C)Nc1cncc(-c2ccc3cnc(NC(=O)C4CCN(C(C)C)CC4)cc3c2)n1 [Compound 90, 1-isopropyl-N-(6-(6-(isopropylamino)pyrazin-2-yl)isoquinolin-3-yl)piperidine-4-carboxamide] | 139 | 1 | 463 | 10 | 465 | – | – | 37 | – | –
6 | CC(C)Nc1cncc(-c2ccc3cnc(NC(=O)c4cccc(C5CCNCC5)c4)cc3c2)n1 [Compound 92, N-(6-(6-(Isopropylamino)pyrazin-2-yl)isoquinolin-3-yl)-3-(piperidin-4-yl) benzamide] | 142 | 9 | 374 | 3370 | 235 | – | – | 3220 | – | –
7 | CC(C)Nc1cncc(-c2ccc3cnc(NC(=O)c4cccc(C5CCN(C)CC5)c4)cc3c2)n1 [Compound 93, N-(6-(6-(Isopropylamino)pyrazin-2-yl)isoquinolin-3-yl)-3-(1-methylpiperidin-4-yl)benzamide] | 132 | 1 | 811 | 6550 | 171 | – | – | 2240 | – | –
8 | CC(C)Nc1cncc(-c2ccc3cnc(NC(=O)c4cn(C5CCN(CCF)CC5)nn4)cc3c2)n1 [Compound 95, 1-(1-(2-fluoroethyl)piperidin-4-yl)-N-(6-(6-(isopropylamino)pyrazin-2-yl)isoquinolin-3-yl)-1H-1,2,3-triazole-4-carboxamide] | 34 | 2 | 211 | 6960 | 1060 | – | – | 91 | – | –

Continued, in another order:

Row | EC50 [1] [nM] | EC50 [2, 6] [nM] | EC50 [4] [nM] | EC50 (recombinant GSK3β kinase; [7]) [nM] | EC50 [5] [nM] | EC50 [2] [nM] | EC50 (recombinant GSK3β kinase) [nM] | SMILES | EC50 [3] [nM] | inhibition at 10 µM ([3]; read-out: percent inhibition at 10 μM (given for EC50 >10 μM), TGF-β1, αSMA, 10 μM) [%] | inhibition at 10 µM ([4]; read-out: percent inhibition at 10 μM (given for EC50 >10 μM), LPS, IL-6, 10 μM) [%]
9 | 24 | 2 | 137 | 2670 | 46 | – | – | CC(C)Nc1cncc(-c2ccc3cnc(NC(=O)c4cn(C5CCNCC5)nn4)cc3c2)n1 [Compound 94, N-(6-(6-(isopropylamino)pyrazin-2-yl)isoquinolin-3-yl)-1-(piperidin-4-yl)-1H-1,2,3-triazole-4-carboxamide] | 103 | – | –
10 | 28 | 1 | 312 | 3000 | 91 | – | – | CC(C)Nc1cncc(-c2ccc3cnc(NC(=O)c4cn(C5CCN(C(C)C)CC5)nn4)cc3c2)n1 [Compound 96, N-(6-(6-(Isopropylamino)pyrazin-2-yl)isoquinolin-3-yl)-1-(1-isopropylpiperidin-4-yl)-1H-1,2,3-triazole-4-carboxamide] | 152 | – | –
11 | 7 | 2 | 184 | 6270 | 222 | – | – | CC(C)Nc1cncc(-c2ccc3cnc(NC(=O)c4ccnc(N5CCN(C)CC5)c4)cc3c2)n1 [Compound 97, N-(6-(6-(Isopropylamino)pyrazin-2-yl)isoquinolin-3-yl)-2-(4-methylpiperazin-1-yl)isonicotinamide] | 311 | – | –
12 | 24 | 2 | 87 | 4800 | 31 | – | – | CN(C)C1CN(c2cc(C(=O)Nc3cc4cc(-c5cncc(NC(C)(C)C)n5)ccc4cn3)ccn2)C1 [Compound 98, N-(6-(6-(tert-Butylamino)pyrazin-2-yl)isoquinolin-3-yl)-2-(3-(dimethylamino)azetidin-1-yl)isonicotinamide] | 32 | – | –
13 | 18 | 4 | 125 | 748 | 43 | – | – | CN1CC=C(c2cc(C(=O)Nc3cc4cc(-c5cncc(NC(C)(C)C)n5)ccc4cn3)ccn2)CC1 [Compound 99, N-(6-(6-(tert-Butylamino)pyrazin-2-yl)isoquinolin-3-yl)-1′-methyl-1′,2′,3′,6′-tetrahydro-[2,4′-bipyridine]-4-carboxamide] | 31 | – | –
14 | 51 | 4 | 223 | 5170 | 111 | – | – | CN1CCN(c2cc(C(=O)Nc3cc4cc(-c5cncc(NC(C)(C)C)n5)ccc4cn3)ccn2)CC1 [Compound 100, N-(6-(6-(tert-Butylamino)pyrazin-2-yl)isoquinolin-3-yl)-2-(4-methylpiperazin-1-yl)isonicotinamide] | 45 | – | –
15 | 42 | 4 | 260 | > 10000 | 61 | – | – | CC(C)N1CCN(c2cc(C(=O)Nc3cc4cc(-c5cncc(NC(C)(C)C)n5)ccc4cn3)ccn2)CC1 [Compound 101, N-(6-(6-(tert-Butylamino)pyrazin-2-yl)isoquinolin-3-yl)-2-(4-isopropylpiperazin-1-yl)isonicotinamide] | 46 | – | –
